Measurements from patent US20250177410A1, “COMBINATION THERAPIES COMPRISING A SOS1 INHIBITOR AND AN EGFR INHIBITOR” (Mirati Therapeutics, Inc., priority 2022, published 2025).
Like-named read-outs stand apart in the source and are kept apart here.

Tests used:
[1] = test system: PC9 cells harboring EGFR exon 19del (E746_A750del) mutation
Procedure: (§1) Immunocompromised NOD/SCID mice are inoculated in the right hind flank with PC9 cells harboring EGFR exon 19del (E746_A750del) mutation. When tumor volumes reach between 100-150 mm^3 in size, the mice are divided into four groups of 4-12 mice each. The first group is administered vehicle only. […] The fourth and fifth groups are administered the single agent dose of the EGFR inhibitor in combination with the single agent dose of the SOS1 inhibitor. The treatment period was 27 days. Tumor volumes are measured using a caliper every two-three days and tumor volumes are calculated by the formula: 0.5×(Length×Width) 2.
30 NOD/SCID mice were inoculated in the right hind limb with 5×10^6 PC9 cells.

[2] = test system: NCI-H1975 cells harboring EGFR L585R/T790M mutations
Procedure: as §1, with “nude/nude” for “NOD/SCID”, “NCI-H1975” for “PC9”, “L585R/T790M mutations.” for “exon 19del (E746_A750del) mutation.”, “200-400” for “100-150”, “21” for “27”, “0.5×(Length×Width)2.” for “0.5×(Length×Width) 2.”
30 nude/nude mice were inoculated in the right hind limb with 5×10^6 NCI-H1975 cells.

[3] = Study Day 3, MRTX0902 50 mg/kg p.o.
[4] = Study Day 10, MRTX0902 50 mg/kg p.o.
[5] = Study Day 14, MRTX0902 50 mg/kg p.o.
[6] = Study Day 21, MRTX0902 50 mg/kg p.o.
[7] = Study Day 3, Osimertinib 2.5 mg/kg QD p.o.
[8] = Study Day 10, Osimertinib 5 mg/kg QD p.o.
[9] = Study Day 21, Osimertinib 5 mg/kg QD p.o.

Cc1c(C#N)cccc1[C@@H](C)Nc1nnc(C)c2cnc(N3CCOCC3)cc12 [MRTX0902, (R)-2-methyl-3-(1-((4-methyl-7-morpholinopyrido[3,4-d]pyridazin-1-yl)amino)ethyl)benzonitrile]
tumor growth inhibition ([1]; MRTX0902 50 mg/kg BID): 54% | Average Tumor Volume [1, 3]: 197 mm^3 | Average Tumor Volume ([1]; Study Day 6, MRTX0902 50 mg/kg p.o.): 247 mm^3 | Average Tumor Volume [1, 4]: 330 mm^3 | Average Tumor Volume [1, 5]: 442 mm^3 | Average Tumor Volume ([1]; Study Day 18, MRTX0902 50 mg/kg p.o.): 578 mm^3 | Average Tumor Volume [1, 6]: 661 mm^3 | Average Tumor Volume ([1]; Study Day 24, MRTX0902 50 mg/kg p.o.): 755 mm^3 | Average Tumor Volume ([1]; Study Day 27, MRTX0902 50 mg/kg p.o.): 798 mm^3 | Average Tumor Volume ([1]; Study Day −1, MRTX0902 50 mg/kg p.o.): 112 mm^3 | tumor growth inhibition ([2]; MRTX0902 50 mg/kg BID single agent): 26% | Average Tumor Volume ([2]; Study Day 0, MRTX0902 50 mg/kg p.o.): 285 mm^3 | Average Tumor Volume [2, 3]: 504 mm^3 | Average Tumor Volume ([2]; Study Day 7, MRTX0902 50 mg/kg p.o.): 808 mm^3 | Average Tumor Volume [2, 4]: 1028 mm^3 | Average Tumor Volume [2, 5]: 1387 mm^3 | Average Tumor Volume ([2]; Study Day 17, MRTX0902 50 mg/kg p.o.): 1527 mm^3 | Average Tumor Volume [2, 6]: 1372 mm^3

C=CC(=O)Nc1cc(Nc2nccc(-c3cn(C)c4ccccc34)n2)c(OC)cc1N(C)CCN(C)C [Osimertinib, osimertinib]
Average Tumor Volume [1, 7]: 124 mm^3 | Average Tumor Volume ([1]; Study Day 6, Osimertinib 5 mg/kg QD p.o.): 95 mm^3 | Average Tumor Volume [1, 8]: 69 mm^3 | Average Tumor Volume ([1]; Study Day 14, Osimertinib 5 mg/kg QD p.o.): 65 mm^3 | Average Tumor Volume ([1]; Study Day 18, Osimertinib 2.5 mg/kg QD p.o.): 150 mm^3 | Average Tumor Volume ([1]; Study Day 18, Osimertinib 5 mg/kg QD p.o.): 60 mm^3 | Average Tumor Volume [1, 9]: 62 mm^3 | Average Tumor Volume ([1]; Study Day 24, Osimertinib 2.5 mg/kg QD p.o.): 209 mm^3 | Average Tumor Volume ([1]; Study Day 27, Osimertinib 2.5 mg/kg QD p.o.): 214 mm^3 | Average Tumor Volume ([1]; Study Day −1, Osimertinib 2.5 mg/kg QD p.o.): 108 mm^3 | tumor growth ([1]; mouse, in vivo): 92.8% | tumor regression ([1]; osimertinib 5 mg/kg single agent, day 27): −32.5% | Average Tumor Volume ([2]; Study Day 0, Osimertinib 2.5 mg/kg QD p.o.): 286 mm^3 | Average Tumor Volume ([2]; Study Day 0, Osimertinib 5 mg/kg QD p.o.): 286 mm^3 | Average Tumor Volume [2, 7]: 288 mm^3 | Average Tumor Volume ([2]; Study Day 3, Osimertinib 5 mg/kg QD p.o.): 173 mm^3 | Average Tumor Volume ([2]; Study Day 7, Osimertinib 2.5 mg/kg QD p.o.): 325 mm^3 | Average Tumor Volume [2, 8]: 70 mm^3 | Average Tumor Volume ([2]; Study Day 17, Osimertinib 2.5 mg/kg QD p.o.): 468 mm^3 | Average Tumor Volume ([2]; Study Day 17, Osimertinib 5 mg/kg QD p.o.): 83 mm^3 | Average Tumor Volume [2, 9]: 135 mm^3 | tumor growth ([2]; mouse, in vivo): 89% | tumor regression ([2]; osimertinib 5 mg/kg single agent, day 17): −71%
